The record followed here is patent US20220324835A1 (Nurix Therapeutics, Inc., priority 2018, published 2022).

Test [1] deals with T-cell. In words: IL-2 secretion from T-cells co-stimulated with anti-CD3 and anti-CD28 antibody (Biological Example 2). The format is cell-based, human. The conditions noted are these: Homo sapiens, T-cell, fold change over baseline (anti-CD3/anti-CD28 stimulated T-cells without inhibitor), read-out: IL-2 secretion Anti-CD3/Anti-CD28 stimulation; for fold induction at 0.3 µM: 0.3 μM Cbl-b inhibitor; for fold induction at 1 µM: 1 μM Cbl-b inhibitor. An outline of the steps:
(§1)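 T-cells were stimulated with anti-CD3 antibody alone or with anti-CD28 antibody, in the presence or absence of Cbl-b inhibitor. IL-2 secretion or CD25 surface staining was measured, and values expressed as fold over the uninhibited baseline […].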

The target of test [2] is T1, Cbl-b (Homo sapiens, UniProt Q13191). Nature of the test: Cbl-b inhibition assay (Cbl-b activity assay, FRET, Biological Example 1; 100 mM NaCl, 60 nM Src kinase). The conditions noted are these: upper bound stated in text lists; read-out: IC50 values in the Cbl-b inhibition assay of Biological Example 1. It counts as biochemical. An outline of the steps: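 Steps: Src kinase phosphorylates N-terminal biotinylated Avi-tagged Cbl-b; phosphorylated Cbl-b binds Bodipy-fluorescein ubiquitin-loaded UbcH5B; streptavidin-terbium on Cbl-b sits close to the fluorescein label, producing FRET. Inhibitors block UbcH5B-Ub binding.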

The target of test [3] is T1, Cbl-b. In words: Cbl-b activity assay (Cbl-b inhibition assay), TR-FRET of Cbl-b interaction with UbcH5B-Ub. It counts as biochemical. Particulars: assay buffer with 100 mM NaCl, 60 nM Src kinase; read-out: Cbl-b activity IC50. An outline of the steps: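 UbcH5B (C85K) conjugated to N-terminally Bodipy-Fluorescein-labeled ubiquitin served as the fluorescent partner. After compound preincubation, Src kinase (60 nM) with 1 mM ATP and 5 mM MgCl2 (final) was added for 1.5 h, followed by a further 1 h incubation. Some values were obtained with 50 mM NaCl and 30 nM Src.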
On the technique in general: TR-FRET usually uses a lanthanide donor and a delayed reading to cut background.

Test [4] has as its system T-cell. Nature of the test: IL-2 secretion from T-cells stimulated with anti-CD3 antibody alone (Biological Example 2). It counts as cell-based, human. The conditions noted are these: Homo sapiens, T-cell; 1 μM Cbl-b inhibitor; fold change over baseline (anti-CD3/anti-CD28 stimulated T-cells without inhibitor); read-out: IL-2 secretion Anti-CD3 stimulation.
The test system of test [5] is T-cell. Nature of the test: CD25 cell surface staining on T-cells co-stimulated with anti-CD3 and anti-CD28 antibody (Biological Example 2). The format is cell-based, human. Particulars: Homo sapiens, T-cell, fold change over baseline (anti-CD3/anti-CD28 stimulated T-cells without inhibitor), read-out: CD25 staining Anti-CD3/Anti-CD28 stimulation; for fold induction at 0.3 µM: 0.3 μM Cbl-b inhibitor; for fold induction at 1 µM: 1 μM Cbl-b inhibitor. An outline of the steps:
as §1

The subject of test [6] is T-cell. In words: CD25 cell surface staining on T-cells stimulated with anti-CD3 antibody alone (Biological Example 2). The conditions noted are these: Homo sapiens, T-cell; 1 μM Cbl-b inhibitor; fold change over baseline (anti-CD3/anti-CD28 stimulated T-cells without inhibitor); read-out: CD25 staining Anti-CD3 stimulation. It counts as cell-based, human.

Each structure is given as a SMILES string.

T1 sequence (Q13191 36-427): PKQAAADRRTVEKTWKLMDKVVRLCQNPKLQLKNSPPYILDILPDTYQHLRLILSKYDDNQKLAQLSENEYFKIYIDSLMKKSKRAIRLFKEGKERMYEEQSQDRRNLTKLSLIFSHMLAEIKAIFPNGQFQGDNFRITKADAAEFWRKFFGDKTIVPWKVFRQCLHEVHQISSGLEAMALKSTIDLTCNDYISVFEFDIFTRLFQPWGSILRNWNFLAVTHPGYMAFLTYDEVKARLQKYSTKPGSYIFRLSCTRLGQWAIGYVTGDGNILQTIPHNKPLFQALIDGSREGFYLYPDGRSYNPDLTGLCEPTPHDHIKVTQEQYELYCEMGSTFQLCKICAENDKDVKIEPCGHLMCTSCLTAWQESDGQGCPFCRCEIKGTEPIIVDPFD

As a reminder, the IC50 is the concentration that inhibits the measured activity by half. Take `CCN1CCN(Cc2cc3c(c(C(F)(F)F)c2)CN(c2cccc(C4(Cc5nncn5C)COC4)c2)C3=O)CC1` [Example 624, 6-((4-ethylpiperazin-1-yl)methyl)-2-(3-(3-((4-methyl-4H-1,2,4-triazol-3-yl)methyl)oxetan-3-yl)phenyl)-4-(trifluoromethyl)isoindolin-1-one]: the fold induction at 0.3 µM in test [1] lay in the range of 5 to 7.5; in test [5], 1.31 to 1.5. Further, the fold induction at 1 µM was greater than 7.5 in test [1], greater than 0.201 in test [4], 1.31 to 1.5 in test [5] and greater than 1 in test [6]. Moreover, the figures for the IC50 in test [2] and in test [3] were no more than 100 nM and less than 100 nM, respectively.

For the compound `CN1CCN(Cc2cc3c(c(C(F)(F)F)c2)CN(c2cccc(C4(Cc5nncn5C)COC4)c2)C3=O)CC1` [Example 625, 2-(3-(3-((4-methyl-4H-1,2,4-triazol-3-yl)methyl)oxetan-3-yl)phenyl)-6-((4-methylpiperazin-1-yl)methyl)-4-(trifluoromethyl)isoindolin-1-one], the figures for the fold induction at 0.3 µM in test [1] and in test [5] were 2.51 to 5 and 1.31 to 1.5, respectively. In addition, the fold induction at 1 µM is greater than 7.5 in test [1], greater than 0.201 in test [4], 1.31 to 1.5 in test [5] and greater than 1 in test [6]. Also, the IC50 in test [2] was no more than 100 nM; in test [3], less than 100 nM.

For the compound `Cn1cnnc1CC1(c2cccc(N3Cc4c(cc(CN5CCCCC(F)C5)cc4C(F)(F)F)C3=O)c2)COC1` (stereo not drawn) [Example 627, 6-((3-fluoroazepan-1-yl)methyl)-2-(3-(3-((4-methyl-4H-1,2,4-triazol-3-yl)methyl)oxetan-3-yl)phenyl)-4-(trifluoromethyl)isoindolin-1-one], the fold induction at 0.3 µM in test [1] is 5 to 7.5; in test [5], 1.31 to 1.5. The fold induction at 1 µM was greater than 7.5 in test [1], greater than 0.201 in test [4], 1.31 to 1.5 in test [5] and greater than 1 in test [6]. In addition, the results for the IC50 in test [2] and in test [3] were no more than 100 nM and less than 100 nM, respectively.

For `Cn1cnnc1CC1(c2cccc(N3Cc4c(cc(CN5CCC(C#N)CC5)cc4C(F)(F)F)C3=O)c2)COC1` [Example 628, 1-((2-(3-(3-((4-methyl-4H-1,2,4-triazol-3-yl)methyl)oxetan-3-yl)phenyl)-3-oxo-7-(trifluoromethyl)isoindolin-5-yl)methyl)piperidine-4-carbonitrile], the fold induction at 0.3 µM in test [1] was 5 to 7.5; in test [5], 1.31 to 1.5. Also, the fold induction at 1 µM in test [1] is greater than 7.5; in test [4] it was greater than 0.201; in test [5], 1.31 to 1.5; in test [6] it was greater than 1. Moreover, the values for the IC50 in test [2] and in test [3] were no more than 100 nM and less than 100 nM, respectively.

Consider `CCOC1CCCN(Cc2cc3c(c(C(F)(F)F)c2)CN(c2cccc(C4(Cc5nncn5C)COC4)c2)C3=O)C1` (stereo not drawn) [Example 629, 6-((3-ethoxypiperidin-1-yl)methyl)-2-(3-(3-((4-methyl-4H-1,2,4-triazol-3-yl)methyl)oxetan-3-yl)phenyl)-4-(trifluoromethyl)isoindolin-1-one], for which the fold induction at 0.3 µM was greater than 7.5 in test [1] and 1.51 to 1.75 in test [5]. Also, the fold induction at 1 µM in test [1] is greater than 7.5; in test [4], greater than 0.201; in test [5], 1.51 to 1.75; in test [6], greater than 1. The IC50 in test [2] is no more than 100 nM; in test [3], less than 100 nM.

On to `COC1CCN(Cc2cc3c(c(C(F)(F)F)c2)CN(c2cccc(C4(Cc5nncn5C)COC4)c2)C3=O)CC1` [Example 632, 6-((4-methoxypiperidin-1-yl)methyl)-2-(3-(3-((4-methyl-4H-1,2,4-triazol-3-yl)methyl)oxetan-3-yl)phenyl)-4-(trifluoromethyl)isoindolin-1-one], for which the fold induction at 0.3 µM in test [1] is greater than 7.5; in test [5] it was 1.31 to 1.5. Moreover, the fold induction at 1 µM in test [1] is greater than 7.5; in test [4] it was greater than 0.201; in test [5], 1.51 to 1.75; in test [6] it was greater than 1. Also, the figures for the IC50 in test [2] and in test [3] were no more than 100 nM and less than 100 nM, respectively.

On to `Cn1cnnc1CC1(c2cccc(N3Cc4c(cc(CN5CCC(F)(F)CC5)cc4C(F)(F)F)C3=O)c2)COC1` [Example 633, 6-((4,4-difluoropiperidin-1-yl)methyl)-2-(3-(3-((4-methyl-4H-1,2,4-triazol-3-yl)methyl)oxetan-3-yl)phenyl)-4-(trifluoromethyl)isoindolin-1-one], for which the values for the fold induction at 0.3 µM in test [1] and in test [5] were greater than 7.5 and 1.31 to 1.5, respectively. Further, the fold induction at 1 µM in test [1] is greater than 7.5; in test [4] it was greater than 0.201; in test [5], 1.31 to 1.5; in test [6] it was greater than 1. Moreover, the IC50 in test [2] was no more than 100 nM; in test [3] it was less than 100 nM.

For `CC1CCN(Cc2cc3c(c(C(F)(F)F)c2)CN(c2cccc(C4(Cc5nncn5C)COC4)c2)C3=O)CC1(F)F` (stereo not drawn) [Example 635, 6-((3,3-difluoro-4-methylpiperidin-1-yl)methyl)-2-(3-(3-((4-methyl-4H-1,2,4-triazol-3-yl)methyl)oxetan-3-yl)phenyl)-4-(trifluoromethyl)isoindolin-1-one], the fold induction at 0.3 µM in test [1] was greater than 7.5; in test [5], 1.31 to 1.5. The fold induction at 1 µM is greater than 7.5 in test [1], greater than 0.201 in test [4], 1.31 to 1.5 in test [5] and greater than 1 in test [6]. For the same compound, the figures for the IC50 in test [2] and in test [3] were no more than 100 nM and less than 100 nM, respectively.

Turning to `Cn1cnnc1CC1(c2cccc(N3Cc4c(cc(CN5CCC6(CC6)C(F)(F)C5)cc4C(F)(F)F)C3=O)c2)COC1` [Example 636, 6-((4,4-difluoro-6-azaspiro[2.5]octan-6-yl)methyl)-2-(3-(3-((4-methyl-4H-1,2,4-triazol-3-yl)methyl)oxetan-3-yl)phenyl)-4-(trifluoromethyl)isoindolin-1-one], the fold induction at 0.3 µM in test [1] was 2.51 to 5; in test [5] it was 1.31 to 1.5. The fold induction at 1 µM is greater than 7.5 in test [1], greater than 0.201 in test [4], 1.31 to 1.5 in test [5] and greater than 1 in test [6]. The IC50 in test [2] was no more than 100 nM; in test [3] it was less than 100 nM.

With `COC1CCCN(Cc2cc3c(c(C(F)(F)F)c2)CN(c2cccc(C4(Cc5nncn5C)COC4)c2)C3=O)C1` (stereo not drawn) [Example 637, 6-((3-methoxypiperidin-1-yl)methyl)-2-(3-(3-((4-methyl-4H-1,2,4-triazol-3-yl)methyl)oxetan-3-yl)phenyl)-4-(trifluoromethyl)isoindolin-1-one], the figures for the fold induction at 0.3 µM in test [1] and in test [5] were greater than 7.5 and 1.31 to 1.5, respectively. In addition, the fold induction at 1 µM is greater than 7.5 in test [1], greater than 0.201 in test [4], 1.51 to 1.75 in test [5] and greater than 1 in test [6]. Further, the results for the IC50 in test [2] and in test [3] were no more than 100 nM and less than 100 nM, respectively.

Consider `Cn1cnnc1CC1(c2cccc(N3Cc4c(cc(CN5CCC6(CC5)CC6)cc4C(F)(F)F)C3=O)c2)COC1` [Example 641, 6-((6-azaspiro[2.5]octan-6-yl)methyl)-2-(3-(3-((4-methyl-4H-1,2,4-triazol-3-yl)methyl)oxetan-3-yl)phenyl)-4-(trifluoromethyl)isoindolin-1-one], for which the fold induction at 0.3 µM in test [1] was greater than 7.5; in test [5], 1.51 to 1.75. The fold induction at 1 µM in test [1] is greater than 7.5; in test [4] it was greater than 0.201; in test [5], 1.51 to 1.75; in test [6], greater than 1. In addition, the IC50 in test [2] is no more than 100 nM; in test [3] it was less than 100 nM.

Take `Cn1cnnc1CC1(c2cccc(N3Cc4c(cc(CN5CCC(C)(C#N)CC5)cc4C(F)(F)F)C3=O)c2)COC1` [Example 642, 4-methyl-1-((2-(3-(3-((4-methyl-4H-1,2,4-triazol-3-yl)methyl)oxetan-3-yl)phenyl)-3-oxo-7-(trifluoromethyl)isoindolin-5-yl)methyl)piperidine-4-carbonitrile]: the fold induction at 0.3 µM is greater than 7.5 in test [1] and 1.31 to 1.5 in test [5]. Also, the fold induction at 1 µM was greater than 7.5 in test [1], 0.151 to 0.2 in test [4], 1.31 to 1.5 in test [5] and greater than 1 in test [6]. Also, the figures for the IC50 in test [2] and in test [3] were no more than 100 nM and less than 100 nM, respectively.
